# Reference: patent publication US10981892B2, “Acyl sulfonamides that are Bcl family antagonists for use in clinical management of conditions caused or mediated by senescent cells and for treating cancer” (Unity Biotechnology, Inc., priority 2018, dated 2021)
# “Also recorded” adds a separate entry of the source.
# Experiments:
# [1] = background statement; cited from earlier work
# [2] = test system: cigarette smoke induced COPD model, 3MR or INK-ATTAC mice; assay: Cigarette smoke (CS) induced COPD model, oxygen saturation; format: in vivo, mouse; details: after two months of cigarette smoke exposure, compared with untreated controls
# Experimental: As a model for chronic obstructive pulmonary disease (COPD), mice were exposed to cigarette smoke. The effect of a senolytic agent on the mice exposed to smoke is assessed by senescent cell clearance, lung function, and histopathology. The mice used in this study include the 3MR strain, described in US 2017/0027139 A1 and in Demaria et al., Dev Cell. 2014 Dec. 22; 31(6): 722-733. […] The enzyme in the transgene is placed under control of the p16 promoter, which causes it to be specifically expressed in senescent cells. Treatment of the mice with GCV eliminates senescent cells. Other mice used in this study include the […] strain, described in US 2015/0296755 A1 and in Baker et al., Nature 2011 Nov. 2; 479(7372):232-236. The […] mouse has a transgene encoding switchable caspase 8 under control of the p16 promoter. The caspase 8 can be activated by treating the mice with the switch compound AP20187, whereupon the caspase 8 directly induces apoptosis in senescent cells, eliminating them from the mouse. To conduct the experiment, six-week-old 3MR (n=35) or […]=35) mice were chronically exposed to cigarette smoke generated from a Teague TE-10 system, an automatically-controlled cigarette smoking machine that produces a combination of side-stream and mainstream cigarette smoke in a chamber, which is transported to a collecting and mixing chamber where varying amounts of air is mixed with the smoke mixture. The COPD protocol was adapted from the COPD core facility at Johns Hopkins University (Rangasamy et al., 2004, J. Clin. Invest. 114:1248-1259; Yao et al., 2012, J. Clin. Invest. 122:2032-2045). Mice received a total of 6 hours of cigarette smoke exposure per day, 5 days a week for 6 months. Each lighted cigarette (3R4F research cigarettes containing 10.9 mg of total particulate matter (TPM), 9.4 mg of tar, and 0.726 mg of nicotine, and 11.9 mg carbon monoxide per cigarette [University of Kentucky, Lexington, Ky.]) was puffed for 2 seconds and once every minute for a total of 8 puffs, with the flow rate of 1.05 L/min, to provide a standard puff of 35 cm3. The smoke machine was adjusted to produce a mixture of side stream smoke (89%) and mainstream smoke (11%) by smoldering 2 cigarettes at one time. The smoke chamber atmosphere was monitored for total suspended particulates (80-120 mg/m3) and carbon monoxide (350 ppm). […] An equal number of mice received the corresponding vehicle. […] After two months of cigarette smoke (CS) exposure, lung function was assessed by monitoring oxygen saturation using the MouseSTAT PhysioSuiteTM pulse oximeter (Kent Scientific). […] Mice were monitored for 30 seconds and the average peripheral capillary oxygen saturation (SpO2) measurement over this duration was calculated.
# [3] = test system: osteoarthritis model, C57BL/6J mice; assay: Osteoarthritis model (ACL surgery), intra-articular injection; format: in vivo, mouse
# Experimental: This example illustrates the testing of an MDM2 inhibitor in a mouse model for treatment of osteoarthritis. It can be adapted mutatis mutandis to test and develop Bcl inhibitors for use in clinical therapy.
# The model was implemented as follows. C57BL/6J mice underwent surgery to cut the anterior cruciate ligament of one rear limb to induce osteoarthritis in the joint of that limb. During week 3 and week 4 post-surgery, the mice were treated with 5.8 μg of Nutlin-3A (n=7) per operated knee by intra-articular injection, q.o.d. for 2 weeks. At the end of 4 weeks post-surgery, joints of the mice were monitored for presence of senescent cells, assessed for function, monitored for markers of inflammation, and underwent histological assessment.
# Two control groups of mice were included in the studies performed: one group comprising C57BL/6J or 3MR mice that had undergone a sham surgery (n=3) (i.e., surgical procedures followed except for cutting the ACL) and intra-articular injections of vehicle parallel to the GCV (ganciclovir) treated group; and one group comprising C57BL/6J or 3MR mice that had undergone an ACL surgery and received intra-articular injections of vehicle (n=5) parallel to the GCV-treated group. RNA from the operated joints of mice from the Nutlin-3A treated mice was analyzed for expression of SASP factors (mmp3, IL-6) and senescence markers (p16). qRT-PCR was performed to detect mRNA levels.
# Function of the limbs was assessed 4 weeks post-surgery by a weight bearing test to determine which leg the mice favored. The mice were allowed to acclimate to the chamber on at least three occasions prior to taking measurements. Mice were maneuvered inside the chamber to stand with one hind paw on each scale. The weight that was placed on each hind limb was measured over a three second period. At least three separate measurements were made for each animal at each time point. The results were expressed as the percentage of the weight placed on the operated limb versus the contralateral unoperated limb.
# [4] = test system: atherosclerosis model, LDLR-/- mice; assay: Atherosclerosis model, LDLR-/- mice fed a high fat diet, systemic administration; format: in vivo, mouse
# Experimental: This example illustrates the testing of an MDM2 inhibitor in a mouse model for treatment of atherosclerosis. The test compounds are administered systemically rather than locally. The model is done in an LDLR−/− strain of mice, which are deficient in the receptor for low-density lipoprotein. The experiments described here can be adapted mutatis mutandis to test and develop other types of inhibitors for use in clinical therapy.
# Two groups of LDLR−/− mice (10 weeks) are fed a high fat diet (HFD) (Harlan Teklad TD.88137) having 42% calories from fat, beginning at Week 0 and throughout the study. Two groups of LDLR−/− mice (10 weeks) are fed normal chow (−HFD). From weeks 0-2, one group of HFD mice and —HFD mice are treated with Nutlin-3A (25 mg/kg, intraperitoneally). One treatment cycle is 14 days treatment, 14 days off. Vehicle is administered to one group of HFD mice and one group of −HFD mice. At week 4 (timepoint 1), one group of mice are sacrificed and to assess presence of senescent cells in the plaques. For the some of the remaining mice, Nutlin-3A and vehicle administration is repeated from weeks 4-6. At week 8 (timepoint 2), the mice are sacrificed and to assess presence of senescent cells in the plaques. The remaining mice are treated with Nutlin-3A or vehicle from weeks 8-10. At week 12 (timepoint 3), the mice are sacrificed and to assess the level of plaque and the number of senescent cells in the plaques.
# Plasma lipid levels were measured in LDLR−/− mice fed a HFD and treated with Nutlin-3A or vehicle at timepoint 1 as compared with mice fed a —HFD (n=3 per group). Plasma was collected mid-afternoon and analyzed for circulating lipids and lipoproteins.
# At the end of timepoint 1, LDLR−/− mice fed a HFD and treated with Nutlin-3A or vehicle were sacrificed (n=3, all groups), and the aortic arches were dissected for RT-PCR analysis of SASP factors and senescent cell markers. Values were normalized to GAPDH and expressed as fold-change versus age-matched, vehicle-treated LDLR−/− mice on a normal diet.
# At the end of timepoint 2, LDLR−/− mice fed a HFD and treated with Nutlin-3A or vehicle (n=3 for all groups) were sacrificed, and aortic arches were dissected for RT-PCR analysis of SASP factors and senescent cell markers. Values were normalized to GAPDH and expressed as fold-change versus age-matched, vehicle-treated LDLR−/− mice on a normal diet.
# At the end of timepoint 3, LDLR−/− mice fed a HFD and treated with Nutlin-3A or vehicle (n=3 for all groups) were sacrificed, and aortas were dissected and stained with Sudan IV to detect the presence of lipid. Body composition of the mice was analyzed by MRI, and circulating blood cells were counted by Hemavet™.
structure (smiles),measurement,setting,value
CN(C)CC[C@H](CSc1ccccc1)Nc1ccc(S(=O)(=O)NC(=O)c2ccc(N3CCN(Cc4ccccc4-c4ccc(Cl)cc4)CC3)cc2)cc1[N+](=O)[O-] [ABT-737],dose-limiting toxicity in human patients,[1],dose-limiting thrombocytopenia
"CC1(C)CCC(c2ccc(Cl)cc2)=C(CN2CCN(c3ccc(C(=O)NS(=O)(=O)c4ccc(N[C@H](CCN5CCOCC5)CSc5ccccc5)c(S(=O)(=O)C(F)(F)F)c4)cc3)CC2)C1 [ABT-263, Navitoclax]",SpO2 levels,[2],statistically significant increases
COc1ccc(C2=N[C@@H](c3ccc(Cl)cc3)[C@@H](c3ccc(Cl)cc3)N2C(=O)N2CCNC(=O)C2)c(OC(C)C)c1 [Nutlin-3A],clearance of senescent cells from the joint,[3]; 5.8 μg per knee intra-articular,cleared senescent cells from the joint
same,weight bearing: favoring of unoperated over operated hind limb,[3]; 4 weeks post-surgery,abrogated this effect
same,histopathology: destruction of the proteoglycan layer,[3]; joint tissue after ACL surgery,completely abrogated this effect
same,"expression of p16, IL-6, and MMP13 in the tissue","[3]; operated joint, qRT-PCR, 4 weeks post-surgery, 5.8 μg per knee intra-articular q.o.d. 2 weeks",reduced the expression back to below the level of the controls; also recorded: ameliorated
same,SpO2 levels,[2],statistically significant increases
same,"expression of SASP factors and senescent cell markers in aortic arch, timepoint 2","[4]; HFD, multiple treatment cycles, 25 mg/kg i.p., RT-PCR",reduced expression of most markers
same,"expression of SASP factors and senescent cell markers in aortic arch, timepoint 1","[4]; HFD, one treatment cycle, 25 mg/kg i.p., MMP3, MMP13, PAI1, p21, IGFBP2, IL-1A, IL-1B, RT-PCR",reduced expression of several SASP factors and senescent cell markers
same,reduction of surface area covered by plaques in the descending aorta,"[4]; HFD, timepoint 3 (week 12), Sudan IV staining",about 45%
same,mass and body fat composition,"[4]; mice fed the high fat diet, MRI, timepoint 3",decreased
same,platelet and lymphocyte counts versus vehicle treated mice,"[4]; timepoint 3, Hemavet",equivalent
Nc1nc(O)c2ncn(COC(CO)CO)c2n1 [ganciclovir],SpO2 levels,[2],statistically significant increases
CC[C@H](C(=O)N1CCCC[C@H]1C(=O)O[C@H](CCc1ccc(OC)c(OC)c1)c1cccc(OCC(=O)NCC(CNC(=O)COc2cccc([C@@H](CCc3ccc(OC)c(OC)c3)OC(=O)[C@@H]3CCCCN3C(=O)[C@@H](CC)c3cc(OC)c(OC)c(OC)c3)c2)CN(C)C)c1)c1cc(OC)c(OC)c(OC)c1 [AP2018],SpO2 levels,[2],statistically significant increases
